Experimental data as given in PubChem BioAssay (NCI).
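Following 48 hours of exposure in 96-well plates, responses at five concentrations were used to interpolate endpoints linearly. GI50 = concentration required for 50% inhibition of growth. At the TGI there is no net growth.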

How the values were obtained:
Assay in all cases: growth of human tumour cells (NCI), 48 h
[1] = system: UACC-62 melanoma
[2] = system: SK-MEL-2 melanoma
[3] = system: TK-10 renal
[4] = system: SNB-75 CNS
[5] = system: HS 578T breast
[6] = system: COLO 205 colon
[7] = system: KM12 colon
[8] = system: OVCAR-3 ovarian
[9] = system: HCC-2998 colon
[10] = system: MDA-MB-231 breast
[11] = system: NCI-H460 lung
[12] = system: A549 NSCLC
[13] = system: M14 melanoma
[14] = system: SR leukemia

Compound	TGI [1] [µM]	TGI [2] [µM]	TGI [3] [µM]	TGI [4] [µM]	TGI [5] [µM]	TGI [6] [µM]	TGI [7] [µM]	TGI [8] [µM]	TGI [9] [µM]	TGI [10] [µM]	TGI [11] [µM]	TGI [12] [µM]	TGI [13] [µM]	TGI [14] [µM]	GI50 [1] [µM]	GI50 [7] [µM]	GI50 [14] [µM]	GI50 [11] [µM]	GI50 [12] [µM]	GI50 [13] [µM]
CC(=O)c1sc2c(c1OC(=O)c1ccccc1)c(=O)n(-c1ccccc1)c(=S)n2-c1ccccc1	32.8	7.88	> 86.9	28.6	> 30.7	30.1	92.3	> 62.5	45.4	22.7	> 59.5	> 100	14.3							
N#Cc1c2c(c(Nc3cccc(C(F)(F)F)c3)n3c1nc1ccccc13)CCCC2			44.4	57.3		> 100	> 100	> 100		58.9	> 100									
CCCCCCc1cc2cc(-c3cn4ccccc4n3)c(=O)oc2cc1O	20.6	28.5	30.1	8.81		> 100	> 67.9	15.7	47.2	9.7	36.1	31.2	16.1	18.8						
Cc1cc(N(CCC#N)CCC#N)ccc1/C=C(\N=[N+]=[N-])C(=O)NC(=O)COc1ccccc1	> 100	> 100	> 100	> 67.2		> 100	> 100	> 100	> 100		> 100	> 100	> 100	> 100						
O=S1(=O)OCCOS(=O)(=O)C1(Br)Br	> 100	> 100	> 100	> 100		> 100	> 100	> 100	> 100			> 100	> 100	> 100						
CCOC(=O)C(C(=O)OCC)S(C)(=O)=O	> 100	> 100	> 100			> 100	> 100	> 100	> 100		> 100	> 100	> 100	> 100						
Cc1nnc(N)nc1C/C=C/C(C)Sc1ccc(Cl)cc1 (stereo not drawn)	17.8	30.6	35.9	19.2	> 75.9	49.8	20.7		31.3	> 41.9	30.3	58.6	26							
O=C(O)C1Cc2[nH]c3ccccc3c2C2CCCC12 (stereo not drawn)	> 100	> 100	> 100	> 100		> 100	> 100	> 100	> 100		> 100	> 100	> 100	> 100						
N#CCCN(c1ccc(C=Nc2ccc(C(=O)O)cc2)cc1)S(=O)(=O)c1ccccc1	> 100	> 100	> 100	> 100		> 100	> 100	> 100	> 100		> 100	> 100	> 100	> 100						
CCOC(=O)c1cc(C2CCN(Cc3ccccc3)C2=O)c(C(=O)/C=C(/C)N)[nH]1 (stereo not drawn)	> 100	> 100	> 100	> 100	> 100	> 100	> 100	> 100	> 100	> 100	> 100	> 100	> 100							
CC(/C=C1\CCC(CN(C)C)C1=O)c1cccc(Br)c1 (stereo not drawn)	32.4	30.5	30.6			37.4	23.9	30.8	35.9		> 70.2	> 96.2	29.2							
COc1cc(Cn2c3ccccc3c3cc(C)cc(OC)c32)cc2c1[nH]c1ccccc12	> 25	> 25	> 25			> 25	> 25	> 25	> 25		> 25	> 25	20.2	> 25	15	10.2	16.6	10.8	23.2	6.27
Cc1cnc2c(c1)C(=O)N(c1ccc(Br)cc1)S2(=O)=O	> 100	> 100	> 100	> 100	> 100	> 100	> 100	> 100	> 100	> 100	> 100	> 100	> 100							
CCOC(=O)C(CCSC)(CCSC)C(=O)OCC	49.1	> 100	> 100	> 100	> 100	> 100	> 100	> 100	> 100	> 100	> 100	> 100	> 100							
Clc1ccc2c(c1)CC1C[N+]3=C(CCCCC3)C1=C2 (stereo not drawn)	> 100	97	> 100	4.56	> 100	> 100	> 100	> 100		> 100	> 100	> 100	> 100							
Nc1nc(N)c2c(-c3ccccc3)ccnc2n1	> 100	> 100	> 100			> 100		> 100	> 100	> 100	> 100			> 100						
O=C(/C=C/c1ccc(Cl)cc1)c1nc2ccccc2[nH]1	> 100	> 100	70.5	43.8	> 100	50.4	13.3	49.1	25.8	> 100	> 100	> 100	> 100							
CC(C)(Cl)C(Cl)CC/C(CBr)=C(\Cl)CBr (stereo not drawn)	3.33	3.28	3.82	4.85	4.54	8.1	6.08	6.81	21.6	4.42	8.21	30.3	3.22							
CC(C)(C)C1CCC2c3c([nH]c4ccccc34)C3C(=O)N(c4cc(Cl)ccc4Cl)C(=O)C3C2C1 (stereo not drawn)	> 100	> 100	> 100		> 100	> 100		> 100	> 100	> 100	> 100	> 100	> 100							

Compound	TGI [1] [µM]	TGI [2] [µM]	TGI [3] [µM]	TGI [4] [µM]	TGI [5] [µM]	TGI [6] [µM]	TGI [7] [µM]	TGI [8] [µM]	TGI [9] [µM]	TGI [10] [µM]	TGI [11] [µM]	TGI [12] [µM]	TGI [13] [µM]	TGI [14] [µM]	GI50 [1] [µM]	GI50 [7] [µM]	GI50 [14] [µM]	GI50 [11] [µM]	GI50 [12] [µM]	GI50 [13] [µM]
C[C@H]1[C@H](C)CC[C@]2(C(=O)O)CCC3(COC(=O)/C=C/c4ccc(O)cc4)C(=CCC4[C@@]5(C)CC[C@H](O)C(C)(C)C5CC[C@]43C)[C@H]12 (stereo partly drawn)	23	43.2	22.3	23.8		17.9	16.3	24.5	18.2		11.2	10.3	24.9	64.3						
COc1ccccc1NC(=O)C(=O)C(c1cnc2ccc([N+](=O)[O-])cc2n1)[N+](=O)[O-] (stereo not drawn)	> 100	> 100	> 100	> 100		> 100	> 100		> 100		> 100	> 100	> 100	> 100						
COc1cc2cnc3c4cc(O)ccc4ccc3c2cc1OC	> 100	87.2	> 100	> 100		59.8	> 100	> 100	> 100		> 100	> 100	> 100	> 100						
COc1cc2c(c(OC)c1)C(=O)C(=O)C(CC1(C)OCCCO1)=C2	20.2	30.3	17.2	33.9		9.58	29.7	10.5	30.1		26.6	28.3	24.3							
CCCC1(N2C(=O)c3ccc4c5c(ccc(c35)C2=O)N(C2(CCC)CCCCC2)C4=O)CCCCC1	> 100	> 100	> 100			> 100	> 100	> 100	> 100	> 100	> 100	> 100	> 100							
O=C1CS(=O)c2ccccc2N1 (stereo not drawn)	> 100	> 100	> 100	> 100		> 100	> 100	> 100	> 100		> 100	> 100	> 100	> 100						
COc1c(N2CCCCC2)c2c(=O)c3ccccc3oc2c2c3ccccc3n(C)c12	> 100	> 100	> 100	> 100	> 100	> 100	> 100	> 100	> 100	> 100	> 100	> 100	> 100							
O=C1NC(NNc2ccccc2)=N/C1=C\c1ccco1	17.3	48.2	36.4	> 100	74.5	25.1	54.6	38.1	33	54.7	55	> 100	44.5							
Cc1nc2c(n1Cc1ccc(F)cc1)C(=O)c1ccccc1C2=O	32.3	> 100	> 100	> 100		> 100	> 100	48.6	> 100		> 100	> 100	> 100	> 100						
CC1=C(N2CC2)C(=O)C(C)=C(N2CC2)C1=O	0.466	1.39	1.5	1.57		0.822	1.89	0.658	0.362	> 100	0.634	75.7	1.25	5.72						
N#C/C(=C\c1ccccc1F)C(=O)c1ccccc1	> 100	> 100	> 100			> 100	> 100	> 100	> 100			> 100	> 100	> 100						
CCOC(OCC)[C@@H]1C[C@@H]2N(O[C@H](OC3CCCC3(c3ccccc3)c3ccccc3)[C@H](OC(C)=O)[C@@]2(CC)Cc2ccc(OC)c(OC)c2)O1 (stereo partly drawn)	> 100	> 100	> 100	> 100		> 100	> 100	> 100	> 100	> 100	> 100	> 100	> 100	> 100						
CN(C)C1(N(C)C)Oc2c(c(=O)n(C)c(=O)n2C)C(c2ccc(F)cc2)C1(F)F (stereo not drawn)	> 100	> 100	> 100	> 100		> 100	> 100	> 100	> 100	> 100	> 100	> 100	> 100							
CC(C)OP(=O)(OC(C)C)/C(=N/Nc1ccc([N+](=O)[O-])cc1)NNC(=O)c1ccccc1	36.5	> 100	> 100	> 100		> 100	> 100	> 100	70.4		> 100	> 100	> 100	50.9						
CCOC(=O)NC(C(F)(F)F)(C(F)(F)F)P(=O)(OCC)OCC	> 100		> 100	> 100	> 100	> 100	> 100	> 100	> 100	> 100	> 100		> 100							
Cc1cc2nc3c(C#N)c4c(c(Cl)n3c2cc1C)CCC4			70.6	> 100		> 100	> 100	49.7		35.1	> 100									
CN(CCO)c1nc(=O)c2c(n1C1OC(CO)C(O)C(O)C1O)CCCC2 (stereo not drawn)	> 100	> 100	> 100	> 100		> 100	> 100	> 100	> 100		> 100	> 100	> 100	> 100						
CCCCCCCC(=O)OC(COC(=O)Cc1ccccc1)COC(=O)C(C)(C)C (stereo not drawn)	> 100		> 100			> 100		> 100	> 100		> 100	> 100	> 100	> 100						
